Test results as given in PubChem BioAssay (NCI).
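Each compound was tested at five concentrations against cells in 96-well plates for 48 hours. GI50 marks 50% less growth. Definition used: TGI = concentration required for complete inhibition of growth.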

How the values were obtained:
Experiment in all cases: NCI-60 cell line screen, 48 h
A498 renal = tested on: A498 renal
HL-60(TB) leukemia = tested on: HL-60(TB) leukemia
OVCAR-5 ovarian = tested on: OVCAR-5 ovarian
SN12C renal = tested on: SN12C renal
HCT-15 colon = tested on: HCT-15 colon
HOP-62 NSCLC = tested on: HOP-62 NSCLC
UO-31 renal = tested on: UO-31 renal
TK-10 renal = tested on: TK-10 renal
SNB-19 CNS = tested on: SNB-19 CNS
BT-549 breast = tested on: BT-549 breast

Row | SMILES | TGI (A498 renal) | TGI (HL-60(TB) leukemia) | TGI (OVCAR-5 ovarian) | TGI (SN12C renal) | TGI (HCT-15 colon) | TGI (HOP-62 NSCLC) | TGI (UO-31 renal) | TGI (TK-10 renal) | GI50 (A498 renal) | GI50 (HL-60(TB) leukemia) | GI50 (OVCAR-5 ovarian) | GI50 (SN12C renal) | GI50 (HCT-15 colon) | GI50 (HOP-62 NSCLC) | GI50 (SNB-19 CNS) | TGI (SNB-19 CNS) | GI50 (UO-31 renal) | GI50 (TK-10 renal) | GI50 (BT-549 breast) | TGI (BT-549 breast)
1 | COc1ccc(/C=N/NS(=O)(=O)c2ccccc2)cc1 | > 100 µM | > 100 µM | > 100 µM | > 100 µM | > 100 µM | > 100 µM | > 100 µM | > 100 µM | – | – | – | – | – | – | – | – | – | – | – | –
2 | CCc1ccc2c(c1)N(CCO)C1=C(C(=O)OC1)C2c1cc(OC)c(OC)c(OC)c1 (centres undefined) | 0.932 µM | 0.48 µM | > 50 µM | > 50 µM | > 50 µM | > 50 µM | > 50 µM | > 50 µM | 0.103 µM | 0.142 µM | 0.422 µM | 0.345 µM | 0.425 µM | 0.207 µM | 0.263 µM | > 50 µM | 0.457 µM | 0.248 µM | 0.564 µM | > 15.7 µM
3 | COc1ccc2c(c1OC)O/C(=C\c1ncc([N+](=O)[O-])n1C)C2=O | 10.4 µM | – | 12.5 µM | 8.83 µM | 3.61 µM | 17.4 µM | 4.39 µM | > 24.1 µM | 3.32 µM | 0.834 µM | 2.82 µM | 1.78 µM | 0.487 µM | 3.67 µM | 3.69 µM | 23.1 µM | 0.957 µM | 3.26 µM | 1.77 µM | 4.46 µM
4 | Cc1ccc(C2CC(c3ccc(Nc4ccnc5cc(Cl)ccc45)cc3)=NN2C=O)cc1 (centres undefined) | – | 6.21 µM | > 100 µM | > 100 µM | > 100 µM | > 100 µM | > 100 µM | > 100 µM | – | 2.27 µM | > 100 µM | 7.23 µM | 2.78 µM | > 100 µM | > 100 µM | > 100 µM | 5.49 µM | > 100 µM | 5.64 µM | > 100 µM
5 | CCCCC1(C(NC(=O)c2ccccc2Cl)c2ccncc2)C(=O)N(c2ccccc2)N(c2ccccc2)C1=O (centres undefined) | – | 40.8 µM | > 100 µM | > 100 µM | > 100 µM | > 100 µM | > 100 µM | > 100 µM | – | – | – | – | – | – | – | > 100 µM | – | – | – | –
6 | COc1cc(NC2CCCCC2O)c2nc(-c3ccc(Cl)cc3)ccc2c1 (centres undefined) | 34.8 µM | 63 µM | > 100 µM | 53.1 µM | 22.4 µM | 46.7 µM | 88.5 µM | > 100 µM | 6.66 µM | 7.57 µM | 19.1 µM | 9.96 µM | 2.94 µM | 5.96 µM | 21.7 µM | > 100 µM | 6.31 µM | 14.6 µM | 40.7 µM | > 100 µM
7 | C#C[C@]1(O)CC[C@H]2[C@@H]3CC=C4c5nc(N)sc5CC[C@]4(C)[C@H]3CC[C@@]21C | 4.21 µM | 7.04 µM | 36.9 µM | 30.6 µM | 17.3 µM | 14.7 µM | 10.5 µM | 39.4 µM | 1.96 µM | 2.65 µM | 11.8 µM | 10.1 µM | 3.2 µM | 3.43 µM | 6.2 µM | 31.1 µM | 2.68 µM | 11.3 µM | 1.97 µM | 6.26 µM
8 | CN(C)c1ccc(C(O)C2=CC(=O)c3ccccc3C2=O)cc1 (centres undefined) | 63 µM | – | 52.4 µM | 4.54 µM | > 100 µM | 64.7 µM | 19.3 µM | 44.3 µM | 15.1 µM | – | 22.4 µM | 1.56 µM | 4.3 µM | 23.1 µM | – | – | 6.46 µM | 12.1 µM | 2.58 µM | 6.25 µM
9 | O=C(O)CCCCC1CCSS1 (centres undefined) | – | > 100 µM | > 100 µM | – | > 100 µM | > 100 µM | > 100 µM | > 100 µM | – | – | – | – | – | – | – | > 100 µM | – | – | – | –
10 | C=C1CC[C@H]2C(C)=CC[C@H]3C(=C)C(=O)O[C@@H]3[C@@H]12 | > 100 µM | > 100 µM | > 100 µM | > 100 µM | > 100 µM | – | > 100 µM | > 100 µM | – | – | – | – | – | – | – | > 100 µM | – | – | – | > 100 µM
11 | CS(=O)(=O)Nc1cc(-c2ccc3ncnc(Nc4cccc(Cl)c4)c3c2)cnc1Cl | – | 17.7 µM | 13.5 µM | 51.2 µM | 2.72 µM | 5.29 µM | 1.86 µM | – | – | 0.174 µM | 0.223 µM | 0.447 µM | 0.296 µM | 0.22 µM | 0.717 µM | 5.05 µM | 0.105 µM | – | 0.272 µM | 3.28 µM
12 | COc1cccc(-c2nc3sccn3c2-c2ccnc(NCCCNS(=O)(=O)c3ccccc3)c2)c1 | > 100 µM | 5.63 µM | > 100 µM | > 100 µM | > 100 µM | > 100 µM | > 100 µM | > 100 µM | 2.92 µM | 2.33 µM | 5.45 µM | 2.76 µM | 3.02 µM | 3.43 µM | 4.92 µM | > 100 µM | 2.07 µM | 4.27 µM | – | –
13 | CCCCCC[C@H]1C(=O)O[C@H](C)[C@H](NC(=O)c2cccc(NC=O)c2OC)C(=O)O[C@@H](C)[C@@H]1OC(=O)CCC (tested in a mixture with another compound) | 29.7 µM | 19.9 µM | 47.6 µM | 37.1 µM | 33.3 µM | 40.1 µM | 29.3 µM | 29.6 µM | 10 µM | 4.68 µM | 20.9 µM | 16.2 µM | 11.1 µM | 16.9 µM | – | – | 13.2 µM | 13.3 µM | 11.9 µM | 35.5 µM
14 | Cn1cnnc1[S-].[Au+].c1ccc([PH+](c2ccccc2)c2ccccc2)cc1 | – | 4.44 µM | 3.49 µM | 3.12 µM | – | – | 3.01 µM | 3.2 µM | – | 1.48 µM | 1.88 µM | 1.7 µM | – | – | 1.62 µM | 3.02 µM | 1.65 µM | 1.72 µM | 1.41 µM | 2.76 µM
15 | O=c1cccc(Cl)[nH]1 | – | – | > 100 µM | > 100 µM | > 100 µM | > 100 µM | > 100 µM | > 100 µM | – | – | – | – | – | – | – | > 100 µM | – | – | – | > 100 µM
